Test results as given in patent publication US20190321291A1, “3D Printing and Drug Delivery” (Biogelx Limited, priority 2016, published 2019).
Where “and” joins values, the source holds several entries; their conditions need not be identical. Equal values may be shown once.

Test: Drug release assay from Fmoc-FF/S hydrogel into PBS release buffer, HPLC analysis
Type: physicochemical
Details: for release profile from the hydrogel compared with control PBS solution: Fmoc-FF/S hydrogel; for duration of sustained release from the gel: 7-day study; for time over which significant drug concentration continued to be released: gel
Protocol: An 1100 Series high-performance liquid chromatography pump (Agilent, USA) was used for the analysis which was performed using acetonitrile with 0.1% TFA and water with 0.1% TFA. […] This concentration was kept constant until 16 mins; after that the gradient was decreased, reaching 40% (v/v) acetonitrile in water at 19 mins. The data was then processed manually using the software ‘Agilent Chemstation.’
The triplicate samples of release buffer were analysed by HPLC, and for the peaks corresponding to each model drug compound the peak area was measured. The average peak area was recorded, and using a standard curve prepared for each compound the concentration of each was determined.
At each of the specified time points the release buffer remaining in the wells was transferred to HPLC vials and stored at 4° C. until HPLC analysis was performed.
An 1100 Series high-performance liquid chromatography pump (Agilent, USA) was used for the analysis which was performed using acetonitrile with 0.1% TFA and water with 0.1% TFA. […] This concentration was kept constant until 16 mins when the gradient was decreased to 40% (v/v) acetonitrile in water at 19 mins. The data was then processed manually using the software ‘Agilent Chemstation.’
The triplicate samples of release buffer were analysed by HPLC, and for the peaks corresponding to each model drug compound the peak area was measured. The average peak area was recorded, and using standard curve prepared for each compound the concentration of each was determined.

[1] = 30 min, 2 mM control solution of drug in PBS, release buffer PBS 37° C.
[2] = 30 min, drug in Fmoc-FF/S gel, release buffer PBS 37° C.

Compound	release profile from the hydrogel compared with control PBS solution	Concentration (ug/mL) Control [1]	Concentration (ug/mL) Gel [2]	Concentration (ug/mL) Gel (3 h, Fmoc-FF/S gel)	Concentration (ug/mL) Control (3 h, control solution in PBS)	Concentration (ug/mL) Gel (6 h, Fmoc-FF/S gel)	Concentration (ug/mL) Control (6 h, control solution in PBS)	Concentration (ug/mL) Gel (9 h, Fmoc-FF/S gel)	Concentration (ug/mL) Control (9 h, control solution in PBS)	Concentration (ug/mL) Gel (24 h, Fmoc-FF/S gel)	Concentration (ug/mL) Control (24 h, control solution in PBS)	Concentration (ug/mL) Gel (48 h, Fmoc-FF/S gel)	Concentration (ug/mL) Control (48 h, control solution in PBS)	Concentration (ug/mL) Gel (72 h, Fmoc-FF/S gel)	Concentration (ug/mL) Control (72 h, control solution in PBS)	Concentration (ug/mL) Gel (5 d, Fmoc-FF/S gel)	Concentration (ug/mL) Control (5 d, control solution in PBS)	Concentration (ug/mL) Gel (7 d, Fmoc-FF/S gel)	Concentration (ug/mL) Control (7 d, control solution in PBS)	duration of sustained release from the gel (Fmoc-FF/S gel)	also measured
CC(C)NCC(O)c1ccc(NS(C)(=O)=O)cc1 (stereo not drawn) [Sotalol]	slower																				
CC(C)NCC(O)COc1cccc2ccccc12 (stereo not drawn) [Propranolol]	altered significantly	17.8 µg/mL	0.03 µg/mL	7.02 µg/mL	36.4 µg/mL	5.38 µg/mL	0.06 µg/mL	4.61 µg/mL	0 µg/mL	7.78 µg/mL	0 µg/mL	7.49 µg/mL	0 µg/mL	4.02 µg/mL	0 µg/mL	3.81 µg/mL	0 µg/mL	2.05 µg/mL	0 µg/mL	> 7 days and 7 days	time by which drug release was below measurable limits (control): ≤ 9 h; time over which significant drug concentration continued to be released (concentration of the peptides 10 mM): ≥ 72 h; time over which significant drug concentration continued to be released (concentration of the peptides 40 mM): ≥ 72 h
CC(C)n1c(/C=C/[C@H](O)C[C@H](O)CC(=O)O)c(-c2ccc(F)cc2)c2ccccc21 (racemic) [Fluvastatin]	slower																				
CC[C@H](C)C(=O)O[C@H]1C[C@H](O)C=C2C=C[C@H](C)[C@H](CC[C@@H](O)C[C@@H](O)CC(=O)O)[C@H]21 [Pravastatin]	slower																				
CC(C)NCC(O)COc1ccc(CCOCC2CC2)cc1 (stereo not drawn) [Betaxolol]		10.34 µg/mL	0.67 µg/mL	9.08 µg/mL	22.71 µg/mL	6.37 µg/mL	0.90 µg/mL	2.98 µg/mL	0.07 µg/mL	5.15 µg/mL	0 µg/mL	1.49 µg/mL	0 µg/mL	0.27 µg/mL	0 µg/mL	0.11 µg/mL	0 µg/mL	0 µg/mL	0 µg/mL	5 days	release time from the gel (10 mM Fmoc-FF/S gel): 5 days; release time from the control insert (control solution in PBS): 9 h
C=C[C@H]1C[N@]2CC[C@H]1C[C@@H]2[C@@H](O)c1ccnc2ccc(OC)cc12 [Quinidine]																				7 days	drug still present in the remaining gel residue at the end of the experiment (10 mM Fmoc-FF/S gel, HPLC, end of 7-day study): 4.5%; release time from the control insert (control solution in PBS): 9 h; total release corresponding to control results (control solution in PBS): 85%
